Laboratory results taken from ChEMBL document CHEMBL5223170, “Potent and Selective Biaryl Amide Inhibitors of Hematopoietic Progenitor Kinase 1 (HPK1)” (ACS Med Chem Lett, 2023).
Values after ≈ are worked out from the molar mass of the structure shown.

Experiments:
in vitro = conditions: human, liver microsomes
physchem = conditions: SGF buffer

CLint scaled at 0.5 h (in vitro): > 18.3 mL/min/kg | solubility (physchem): 350 µg/mL (≈ 687 µM)
Structure (SMILES): COc1cccc(F)c1-c1nccc(C(=O)Nc2cc(F)c3c(cnn3C)c2N2C[C@@H](N)C[C@H]2CO)n1
